Here are results for one compound from PMC5218480 (PLoS ONE, 2017).

The test system of the assay is MV-4-11 cells. Nature of the assay: Gene expression microarray analysis (Affymetrix PrimeView) and GSEA. It is filed as cell-based, human. Also on record: RFU PODN (11730768_x_at) / Fold change /veh PODN (11730768_x_at) / RFU LINC00158 (11744669_a_at) / Fold change /veh LINC00158 (11744669_a_at) / RFU DUSP10 (11751237_a_at) / Fold change /veh DUSP10 (11751237_a_at) / RFU ID3 (11757404_x_at) / Fold change /veh ID3 (11757404_x_at) / RFU PLEKHG5 (11737974_s_at) / Fold change /veh PLEKHG5 (11737974_s_at) / RFU LRRC4B (11730491_at) / Fold change /veh LRRC4B (11730491_at) / RFU GIMAP4 (11747438_a_at) / Fold change /veh GIMAP4 (11747438_a_at) / RFU KRT8 (11758183_x_at) / Fold change /veh KRT8 (11758183_x_at) / RFU CNN1 (11734310_a_at) / Fold change /veh CNN1 (11734310_a_at) / RFU VPS37D (11726825_at) / Fold change /veh VPS37D (11726825_at) / RFU C10orf10 (11716522_x_at) / Fold change /veh C10orf10 (11716522_x_at) / RFU KIR2DL2 /// KIR2DL4 /// KIR2DL5A /// KIR2DL5B /// KIR2DS1 /// KIR2DS2 /// KIR2DS3 /// KIR2DS4 /// KIR3DL3 /// KIR3DL3 /// KIR3DS1 (11738374_at) / Fold change /veh KIR2DL2 /// KIR2DL4 /// KIR2DL5A /// KIR2DL5B /// KIR2DS1 /// KIR2DS2 /// KIR2DS3 /// KIR2DS4 /// KIR3DL3 /// KIR3DL3 /// KIR3DS1 (11738374_at) / RFU C1QL1 (11718748_at) / Fold change /veh C1QL1 (11718748_at) / RFU TMPRSS4 (11747572_a_at) / Fold change /veh TMPRSS4 (11747572_a_at) / RFU HAMP (11756126_x_at) / Fold change /veh HAMP (11756126_x_at) / RFU RNFT2 (11725882_a_at) / Fold change /veh RNFT2 (11725882_a_at) / RFU NR4A2 (11747474_a_at) / Fold change /veh NR4A2 (11747474_a_at) / RFU ABCC12 (11746883_a_at) / Fold change /veh ABCC12 (11746883_a_at) / RFU TMEM136 (11760407_x_at) / Fold change /veh TMEM136 (11760407_x_at) / RFU CLDN22 /// WWC2 (11732394_at) / Fold change /veh CLDN22 /// WWC2 (11732394_at) / RFU HLA-DPB1 (11760878_x_at) / Fold change /veh HLA-DPB1 (11760878_x_at) / RFU SPINT1 (11716480_a_at) / Fold change /veh SPINT1 (11716480_a_at) / RFU GAP43 (11754022_s_at) / Fold change /veh GAP43 (11754022_s_at) / RFU A4GNT (11735810_at) / Fold change /veh A4GNT (11735810_at) / RFU PRB3 (11715151_x_at) / Fold change /veh PRB3 (11715151_x_at) / RFU TUBB4B (11761932_at) / Fold change /veh TUBB4B (11761932_at) / RFU CAPN14 (11732068_a_at) / Fold change /veh CAPN14 (11732068_a_at) / RFU TMCC2 (11721928_a_at) / Fold change /veh TMCC2 (11721928_a_at) / RFU IRGQ (11745062_a_at) / Fold change /veh IRGQ (11745062_a_at) / RFU FAM174B (11720279_a_at) / Fold change /veh FAM174B (11720279_a_at) / RFU TMPRSS4 (11748680_a_at) / Fold change /veh TMPRSS4 (11748680_a_at) / RFU FAM212B (11763350_a_at) / Fold change /veh FAM212B (11763350_a_at) / RFU PLEKHG5 (11743358_a_at) / Fold change /veh PLEKHG5 (11743358_a_at) / RFU ZSCAN30 (11745921_a_at) / Fold change /veh ZSCAN30 (11745921_a_at) / RFU CMKLR1 (11741424_a_at) / Fold change /veh CMKLR1 (11741424_a_at) / RFU LOC101060620 /// MAPK8IP1 (11723275_at) / Fold change /veh LOC101060620 /// MAPK8IP1 (11723275_at) / RFU SPTSSB (11747773_x_at) / Fold change /veh SPTSSB (11747773_x_at) / RFU PRSS12 (11739890_at) / Fold change /veh PRSS12 (11739890_at) / RFU BIN1 (11741810_x_at) / Fold change /veh BIN1 (11741810_x_at) / RFU WNT11 (11732464_a_at) / Fold change /veh WNT11 (11732464_a_at) / RFU C10orf10 (11716521_a_at) / Fold change /veh C10orf10 (11716521_a_at) / RFU C5orf56 (11738089_at) / Fold change /veh C5orf56 (11738089_at) / RFU CYB561 (11721691_x_at) / Fold change /veh CYB561 (11721691_x_at) / RFU ANKRD19P (11752326_a_at) / Fold change /veh ANKRD19P (11752326_a_at) / RFU OR2T12 /// OR2T33 /// OR2T8 (11738714_s_at) / Fold change /veh OR2T12 /// OR2T33 /// OR2T8 (11738714_s_at) / RFU VCAN (11748164_a_at) / Fold change /veh VCAN (11748164_a_at) / RFU JSRP1 (11732532_at) / Fold change /veh JSRP1 (11732532_at) / RFU KRTAP10-11 (11738290_x_at) / Fold change /veh KRTAP10-11 (11738290_x_at) / RFU MYO3A (11730013_a_at) / Fold change /veh MYO3A (11730013_a_at) / RFU EBF3 (11725865_a_at) / Fold change /veh EBF3 (11725865_a_at) / RFU CAMK2N1 (11719241_x_at) / Fold change /veh CAMK2N1 (11719241_x_at) / RFU C5orf56 (11738088_a_at) / Fold change /veh C5orf56 (11738088_a_at) / RFU OLFML3 (11715873_a_at) / Fold change /veh OLFML3 (11715873_a_at) / RFU LOC100653217 /// NTM (11731650_a_at) / Fold change /veh LOC100653217 /// NTM (11731650_a_at) / RFU MAPK11 (11762145_a_at) / Fold change /veh MAPK11 (11762145_a_at) / RFU FIZ1 (11724087_x_at) / Fold change /veh FIZ1 (11724087_x_at) / RFU OASL (11726364_x_at) / Fold change /veh OASL (11726364_x_at) / RFU SOX15 (11748057_x_at) / Fold change /veh SOX15 (11748057_x_at) / RFU CD79A (11719716_a_at) / Fold change /veh CD79A (11719716_a_at) / RFU HIST1H1D (11736915_at) / Fold change /veh HIST1H1D (11736915_at) / RFU CASKIN2 (11723855_a_at) / Fold change /veh CASKIN2 (11723855_a_at) / RFU LOC730098 (11760151_x_at) / Fold change /veh LOC730098 (11760151_x_at) / RFU OR4N2 (11742367_at) / Fold change /veh OR4N2 (11742367_at) / RFU PRRT2 (11749266_a_at) / Fold change /veh PRRT2 (11749266_a_at) / RFU SNX32 (11753110_a_at) / Fold change /veh SNX32 (11753110_a_at) / RFU CDHR5 (11726645_a_at) / Fold change /veh CDHR5 (11726645_a_at) / RFU RCAN1 (11760418_a_at) / Fold change /veh RCAN1 (11760418_a_at) / RFU FAM167A (11723789_a_at) / Fold change /veh FAM167A (11723789_a_at) / RFU FAM26E (11764081_at) / Fold change /veh FAM26E (11764081_at) / RFU ISYNA1 (11749810_s_at) / Fold change /veh ISYNA1 (11749810_s_at) / RFU ACY1 (11761880_at) / Fold change /veh ACY1 (11761880_at) / RFU 11764098_at / Fold change /veh 11764098_at / RFU SAMD14 (11745864_x_at) / Fold change /veh SAMD14 (11745864_x_at) / RFU NPB (11741838_a_at) / Fold change /veh NPB (11741838_a_at) / RFU TMPRSS6 (11731388_a_at) / Fold change /veh TMPRSS6 (11731388_a_at) / RFU KRTAP10-2 (11738614_at) / Fold change /veh KRTAP10-2 (11738614_at) / RFU ARHGAP8 /// PRR5-ARHGAP8 (11727945_x_at) / Fold change /veh ARHGAP8 /// PRR5-ARHGAP8 (11727945_x_at) / RFU KRTAP5-7 /// NADSYN1 (11734609_at) / Fold change /veh KRTAP5-7 /// NADSYN1 (11734609_at) / RFU RASL12 (11751679_a_at) / Fold change /veh RASL12 (11751679_a_at) / RFU CDKN2B (11736163_a_at) / Fold change /veh CDKN2B (11736163_a_at) / RFU PRF1 (11729649_at) / Fold change /veh PRF1 (11729649_at) / RFU, ZNF638 /// ZNF638-IT1 / Fold change vs veh, ZNF638 /// ZNF638-IT1 / RFU, PANK3 / Fold change vs veh, PANK3 / RFU, SH3YL1 / Fold change vs veh, SH3YL1 / RFU, ZEB2 / Fold change vs veh, ZEB2 / RFU, NRIP1 / Fold change vs veh, NRIP1 / RFU, PTTG1IP / Fold change vs veh, PTTG1IP / RFU, CAPN2 / Fold change vs veh, CAPN2 / RFU, MED14 / Fold change vs veh, MED14 / RFU, SNORA58 / Fold change vs veh, SNORA58 / RFU, C1orf63 / Fold change vs veh, C1orf63 / RFU, LRRFIP1 / Fold change vs veh, LRRFIP1 / RFU, NDUFAF7 / Fold change vs veh, NDUFAF7 / RFU, SLC12A2 / Fold change vs veh, SLC12A2 / RFU, IBTK / Fold change vs veh, IBTK / RFU, ESF1 / Fold change vs veh, ESF1 / Fold change vs veh, TMEM50B / RFU, TAOK1 / Fold change vs veh, TAOK1 / RFU, ACBD3 / Fold change vs veh, ACBD3 / RFU, TMA16 / Fold change vs veh, TMA16 / RFU, RWDD3 / Fold change vs veh, RWDD3 / RFU, BCAT1 / Fold change vs veh, BCAT1 / RFU, EDEM3 / Fold change vs veh, EDEM3 / RFU, TMEM33 / Fold change vs veh, TMEM33 / RFU, WDR75 / Fold change vs veh, WDR75 / RFU, AHCTF1 / Fold change vs veh, AHCTF1 / RFU, TFRC / Fold change vs veh, TFRC / RFU, ZDHHC17 / Fold change vs veh, ZDHHC17 / RFU, NOM1 / Fold change vs veh, NOM1 / RFU, ARL8B / Fold change vs veh, ARL8B / RFU, ZBTB11 / Fold change vs veh, ZBTB11 / RFU, TAMM41 / Fold change vs veh, TAMM41 / RFU, KIAA1704 /// LOC100996395 / Fold change vs veh, KIAA1704 /// LOC100996395 / RFU, ING1 / Fold change vs veh, ING1 / RFU, TRMT61B / Fold change vs veh, TRMT61B / RFU, FUBP3 / Fold change vs veh, FUBP3 / RFU, TP53 / Fold change vs veh, TP53 / RFU, TNKS2 / Fold change vs veh, TNKS2 / RFU, ZFP14 / Fold change vs veh, ZFP14 / RFU, ACTR2 / Fold change vs veh, ACTR2 / RFU, PPP3R1 / Fold change vs veh, PPP3R1 / RFU, PIK3R1 / Fold change vs veh, PIK3R1 / RFU, HNRNPA1 / Fold change vs veh, HNRNPA1 / RFU, RNF170 / Fold change vs veh, RNF170 / RFU, ZNF28 / Fold change vs veh, ZNF28 / RFU, RNGTT / Fold change vs veh, RNGTT / RFU, OGT / Fold change vs veh, OGT / RFU, BRD1 / Fold change vs veh, BRD1 / RFU, MARS / Fold change vs veh, MARS / RFU, ZNF655 / Fold change vs veh, ZNF655 / RFU, FAHD1 / Fold change vs veh, FAHD1 / RFU, BDP1 / Fold change vs veh, BDP1 / RFU, LRRCC1 / Fold change vs veh, LRRCC1 / RFU, ARID1A / Fold change vs veh, ARID1A / RFU, ZNF146 / Fold change vs veh, ZNF146 / RFU, ZNF330 / Fold change vs veh, ZNF330 / RFU, GPN3 / Fold change vs veh, GPN3 / RFU, C9orf123 / Fold change vs veh, C9orf123 / RFU, N4BP2L2 / Fold change vs veh, N4BP2L2 / RFU, ARFIP1 / Fold change vs veh, ARFIP1 / RFU, FAM179B / Fold change vs veh, FAM179B / RFU, BCL10 / Fold change vs veh, BCL10 / RFU, UHRF1BP1L / Fold change vs veh, UHRF1BP1L / RFU, BET1 / Fold change vs veh, BET1 / RFU, CNOT2 / Fold change vs veh, CNOT2 / RFU, ZNF268 / Fold change vs veh, ZNF268 / Fold change vs veh, ZNF507 / RFU, DGCR2 / Fold change vs veh, DGCR2 / RFU, WDSUB1 / Fold change vs veh, WDSUB1 / Fold change vs veh, HSP90B1 /// MIR3652 / RFU, ADSS / Fold change vs veh, ADSS / RFU, GK / Fold change vs veh, GK / RFU, ZNF148 / Fold change vs veh, ZNF148 / RFU, TAF9 / Fold change vs veh, TAF9 / RFU, SLC1A5 / Fold change vs veh, SLC1A5 / RFU, SLMO2 / Fold change vs veh, SLMO2 / RFU, ABCC4 / Fold change vs veh, ABCC4 / RFU, LOC101060439 /// RAP1B / Fold change vs veh, LOC101060439 /// RAP1B / RFU, RFX7 / Fold change vs veh, RFX7 / RFU, GTPBP10 / Fold change vs veh, GTPBP10 / RFU, CNEP1R1 / Fold change vs veh, CNEP1R1 / RFU, BIVM-ERCC5 /// ERCC5 / Fold change vs veh, BIVM-ERCC5 /// ERCC5 / RFU, ILF3 / Fold change vs veh, ILF3 / RFU 11762660_at / Fold change /veh 11762660_at / RFU VCAN (11757783_s_at) / Fold change /veh VCAN (11757783_s_at) / RFU DDX43 (11728927_at) / Fold change /veh DDX43 (11728927_at) / RFU KRT8 (11758188_x_at) / Fold change /veh KRT8 (11758188_x_at) / RFU NKD1 (11759106_at) / Fold change /veh NKD1 (11759106_at) / RFU SRD5A1 (11742802_a_at) / Fold change /veh SRD5A1 (11742802_a_at) / RFU TPSAB1 /// TPSB2 (11721975_s_at) / Fold change /veh TPSAB1 /// TPSB2 (11721975_s_at) / RFU GSTM3 (11746129_a_at) / Fold change /veh GSTM3 (11746129_a_at) / RFU IL23R (11737362_x_at) / Fold change /veh IL23R (11737362_x_at) / RFU TMEM51 (11727254_a_at) / Fold change /veh TMEM51 (11727254_a_at) / RFU PIWIL2 (11732686_x_at) / Fold change /veh PIWIL2 (11732686_x_at) / RFU ORM1 (11744905_x_at) / Fold change /veh ORM1 (11744905_x_at) / RFU CCDC152 (11743942_at) / Fold change /veh CCDC152 (11743942_at) / RFU ECM1 (11717891_a_at) / Fold change /veh ECM1 (11717891_a_at) / RFU IL23R (11748794_a_at) / Fold change /veh IL23R (11748794_a_at) / RFU TNFAIP8L3 (11732012_x_at) / Fold change /veh TNFAIP8L3 (11732012_x_at) / RFU MBOAT4 (11741988_at) / Fold change /veh MBOAT4 (11741988_at) / RFU 11764193_at / Fold change /veh 11764193_at / RFU TMEM53 (11763286_at) / Fold change /veh TMEM53 (11763286_at) / RFU MAGEB2 (11727129_at) / Fold change /veh MAGEB2 (11727129_at) / RFU TMEM200A (11744735_a_at) / Fold change /veh TMEM200A (11744735_a_at) / RFU CCDC152 (11751479_a_at) / Fold change /veh CCDC152 (11751479_a_at) / RFU FAM211A (11726209_a_at) / Fold change /veh FAM211A (11726209_a_at) / RFU RGS16 (11746705_a_at) / Fold change /veh RGS16 (11746705_a_at) / RFU VCAN (11755009_s_at) / Fold change /veh VCAN (11755009_s_at) / RFU RHOB (11743442_s_at) / Fold change /veh RHOB (11743442_s_at) / RFU RGS16 (11720943_a_at) / Fold change /veh RGS16 (11720943_a_at) / RFU RGS16 (11720944_at) / Fold change /veh RGS16 (11720944_at) / RFU, VPS4B / Fold change vs veh, VPS4B / RFU, CREB1 / Fold change vs veh, CREB1 / RFU, DNAJC13 / Fold change vs veh, DNAJC13 / RFU, GNAQ / Fold change vs veh, GNAQ / RFU, CDK5R1 / Fold change vs veh, CDK5R1 / RFU, ZRANB3 / Fold change vs veh, ZRANB3 / RFU, CUL4A / Fold change vs veh, CUL4A / RFU, CCNY / Fold change vs veh, CCNY / RFU, UFL1 / Fold change vs veh, UFL1 / RFU, COG3 / Fold change vs veh, COG3 / RFU, DIAPH2 / Fold change vs veh, DIAPH2 / RFU, SKA2 / Fold change vs veh, SKA2 / RFU, AFF3 / Fold change vs veh, AFF3 / RFU, LMF1 / Fold change vs veh, LMF1 / RFU, IPO11 / Fold change vs veh, IPO11 / RFU, DFFB / Fold change vs veh, DFFB / RFU, FOXP1 / Fold change vs veh, FOXP1 / RFU, CARD8 / Fold change vs veh, CARD8 / RFU, STRN3 / Fold change vs veh, STRN3 / RFU, ADK / Fold change vs veh, ADK / RFU, RASSF2 / Fold change vs veh, RASSF2 / RFU, WIPF1 / Fold change vs veh, WIPF1 / RFU, LARP1B / Fold change vs veh, LARP1B / RFU, RASA1 / Fold change vs veh, RASA1 / RFU, RB1 / Fold change vs veh, RB1 / RFU, PPFIA1 / Fold change vs veh, PPFIA1 / RFU, MAT2A / Fold change vs veh, MAT2A / RFU, CCT5 / Fold change vs veh, CCT5 / RFU, WDR92 / Fold change vs veh, WDR92 / RFU, CUX1 / Fold change vs veh, CUX1 / RFU, TTC7A / Fold change vs veh, TTC7A / RFU, TMEM135 / Fold change vs veh, TMEM135 / RFU, DEPTOR / Fold change vs veh, DEPTOR / RFU, CPM / Fold change vs veh, CPM / RFU, DNAJB6 / Fold change vs veh, DNAJB6 / RFU, CACNA2D3 / Fold change vs veh, CACNA2D3 / RFU, DTX4 / Fold change vs veh, DTX4 / RFU, TFCP2 / Fold change vs veh, TFCP2 / RFU, GMCL1 /// GMCL1P1 / Fold change vs veh, GMCL1 /// GMCL1P1 / RFU, AEBP2 / Fold change vs veh, AEBP2 / RFU, SNHG1 /// SNORD22 /// SNORD25 /// SNORD26 /// SNORD27 /// SNORD28 /// SNORD29 /// SNORD31 / Fold change vs veh, SNHG1 /// SNORD22 /// SNORD25 /// SNORD26 /// SNORD27 /// SNORD28 /// SNORD29 /// SNORD31 / Fold change (Aza/veh), C12orf56 (ProbeSet 11735607_a_at) / Fold change (ACY-1035/veh), C12orf56 (ProbeSet 11735607_a_at) / Fold change (Aza/veh), FGFR1OP (ProbeSet 11751329_s_at) / Fold change (ACY-1035/veh), FGFR1OP (ProbeSet 11751329_s_at) / Fold change (Aza/veh), VPS36 (ProbeSet 11739960_a_at) / Fold change (ACY-1035/veh), VPS36 (ProbeSet 11739960_a_at) / RFU SYPL1 (11715823_x_at) / Fold change /veh SYPL1 (11715823_x_at) / RFU IGFBP7 (11715501_s_at) / Fold change /veh IGFBP7 (11715501_s_at) / RFU REEP3 (11722064_at) / Fold change /veh REEP3 (11722064_at) / RFU IGLL1 (11728026_x_at) / Fold change /veh IGLL1 (11728026_x_at): dose or concentration left out as unconfirmed. The note with it: ProbeSet 11719493_s_at; LIST B.

Molecules are shown by their SMILES.

As for `Nc1ccc(-c2cccs2)cc1NC(=O)c1ccc2c(c1)cc(C1CC1)n2CCN1CCOCC1` [ACY-1035], the “RFU, TAF9” value turned out to be 511.51 RFU.
